Legend:
[1] = target: T1, crude spleen cytosol (hydroxyguanidine reducing activity) (Rattus norvegicus, UniProt P22985); assay: Reduction of guanoxabenz to guanabenz by crude spleen cytosol, HPLC; format: biochemical
T1 construct: from tissue; host or cells: rat spleen (70,000 x g supernatant)
Method: Preparation of crude spleen cytosol. Rat spleens were homogenised (1:10 w/v) in ice-cold […] Tris, 1.5 mM EDTA, pH 7.5 with glass/Teflon homogenizer. The homogenate was centrifuged at 30,000×g for 15 min at 4° C. and stored frozen at −80° C. After thawing the supernatant was centrifuged at 70,000×g for 1 hr at 4° C. and used for the assays.
Identification of a reaction product derived from hydroxyguanidine. Crude spleen cytosol was incubated at 25° C. with 70 μM guanoxabenz (2(2,6-dichlorophenyl)methylene-N-hydroxyhydrazine carboxi-imidamide) in the presence of 25 mM Tris-HCl, 0.75 mM EDTA, the total volume being 4 ml. Aliquots of 250 μl were then withdrawn from the reaction mixture after 1, 30, 60, 90 or 240 minutes and heated in a water bath to 80° C. for 5 minutes. The sample was then centrifuged and the supernatant filtered through a 0.22 μm Millipore filter whereafter 200 μl of the filtrate was injected into a reverse phase chromatography column (Waters Symmetry C8) equilibrated in 40% methanol, 60% 10 mM Na-acetate buffer, pH 4.5. The elution speed was 0.5 ml/min and the eluted substances were detected by a UV-monitor set at 260 nm.
In FIG. 1 is shown exemplary details on the time course of appearence of the product.
Preparation of the enzymatic reaction product for NMR-analysis. To obtain enough of the product for NMR studies guanoxabenz (500 μM) was pre-incubated with the crude spleen cytosol for 1 hr. […] Total volume of the reaction mixture was 4 ml. After the incubation the reaction mixture was boiled, centrifuged and filtered, essentially as described above, and aliquots of the materials injected onto the HPLC column. […] The fractions containing the product peak were collected, pooled and lyophilized and then subjected to NMR-analysis.

[2] = target: T2, bovine milk xanthine oxidase (Bos taurus, UniProt P80457)
Target sequence in this assay (P80457 2-1332): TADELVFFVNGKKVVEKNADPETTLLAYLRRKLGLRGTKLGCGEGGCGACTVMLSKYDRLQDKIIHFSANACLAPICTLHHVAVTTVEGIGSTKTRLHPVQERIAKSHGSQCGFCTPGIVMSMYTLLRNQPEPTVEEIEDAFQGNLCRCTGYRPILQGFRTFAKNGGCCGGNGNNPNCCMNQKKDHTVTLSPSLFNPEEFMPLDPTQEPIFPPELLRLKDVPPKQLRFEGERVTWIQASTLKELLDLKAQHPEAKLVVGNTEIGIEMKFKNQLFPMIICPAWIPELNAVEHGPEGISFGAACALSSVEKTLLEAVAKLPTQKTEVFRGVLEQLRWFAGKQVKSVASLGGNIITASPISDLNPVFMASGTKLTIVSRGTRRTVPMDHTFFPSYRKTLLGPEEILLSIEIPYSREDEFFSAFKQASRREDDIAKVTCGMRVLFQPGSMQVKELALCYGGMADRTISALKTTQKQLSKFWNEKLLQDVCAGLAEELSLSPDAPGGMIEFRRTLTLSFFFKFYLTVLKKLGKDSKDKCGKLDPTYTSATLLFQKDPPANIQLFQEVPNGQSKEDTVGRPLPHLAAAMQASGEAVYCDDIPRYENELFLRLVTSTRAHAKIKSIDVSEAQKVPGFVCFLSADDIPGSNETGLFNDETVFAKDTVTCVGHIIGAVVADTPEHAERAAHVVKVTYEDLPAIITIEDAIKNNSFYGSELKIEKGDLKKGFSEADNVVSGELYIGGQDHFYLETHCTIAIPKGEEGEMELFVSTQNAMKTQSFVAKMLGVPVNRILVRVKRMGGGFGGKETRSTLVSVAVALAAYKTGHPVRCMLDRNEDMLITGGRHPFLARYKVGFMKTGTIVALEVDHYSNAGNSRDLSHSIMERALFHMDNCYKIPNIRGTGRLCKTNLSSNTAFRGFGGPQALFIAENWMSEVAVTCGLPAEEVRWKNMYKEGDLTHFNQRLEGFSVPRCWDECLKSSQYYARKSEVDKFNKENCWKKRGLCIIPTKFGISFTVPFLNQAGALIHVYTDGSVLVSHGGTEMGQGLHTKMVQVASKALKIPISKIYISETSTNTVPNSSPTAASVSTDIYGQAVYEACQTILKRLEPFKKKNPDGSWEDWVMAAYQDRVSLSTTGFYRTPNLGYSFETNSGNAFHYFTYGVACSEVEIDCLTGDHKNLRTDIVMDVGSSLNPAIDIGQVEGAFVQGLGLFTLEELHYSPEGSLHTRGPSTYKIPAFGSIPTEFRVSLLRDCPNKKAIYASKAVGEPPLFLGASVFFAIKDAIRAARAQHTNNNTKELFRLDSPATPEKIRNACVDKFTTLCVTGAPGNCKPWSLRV
Method: Capacity of allopurinol to inhibit the reduction of hydroxyguanidines by xanthine oxidase. […] In these tests varying amounts of guanoxabenz was added to assays yielding 150 μl final volumes and containing final concentrations 0.004 units/ml of bovine milk xanthine oxidase (Sigma, St. Louis, MO., USA), 100 μM xanthine, 20 μM allopurinol, 50 pM α2-adrenoceptors (in HT29 cell membranes), 33 mM Tris HCl, 1 mM EDTA, pH 7.5, and incubating for 1 hour at 25° C.

rat heart cytosol = assay: Hydroxyguanidine reducing activity of heart cytosol by radioligand binding assay; format: biochemical; details: 70 μM guanoxabenz, 1 hr at 25° C.
Method: Assay of hydroxyguanidine reducing activity by radioligand binding. The assay is based on the possibility to measure the affinity of ligands to α2-adrenoceptors by using radioligand binding. In a typical experiment small aliquots of the sample to be measured is added to an assay containing membranes rich in α2-adrenoceptors as well as a suitable concentration of a radioligand capable of binding to α2-adrenoceptors. After the assay mixture has been incubated for a suitable time, to achieve equilibrium, the amount of radioligand bound to the membranes is measured by washing and filtering on GF/C glass fibre filters using methods that are well described in literature, and which are commonly referred to as radioligand binding. The ability of the hydroxyguanidine and its product to inhibit the binding of the radioligand to the α2-adrenoceptor constituted a measure of the hydroxyguanidine/guanidine activity of the reaction mixture. A preferred hydroxyguanidine is one which corresponding guanidine show substantially different affinity compared to the hydroxyguanidine itself. A most preferred example of such a hydroxyguanidine is guanoxabenz.
In a more more exact version of the assay the “apparent affinity” of the mixture of hydroxyguanidine and guanidine-product is measured by constructing a complete competition curve for each sample to be measured. This is achieved by adding different dilutions of the reaction mixture to the radioligand binding assay. Since the sum of the concentration of the hydroxyguanidine and the guanidine product is known, the “apparent affinity” of the mixture can be calculated from the radioligand binding data using standard procedures for radioligand binding data analysis (Uhlén and Wikberg,1991). For the purpose of the present studies the apparent affinity of the reaction mixture was estimated from competition data by using a radioligand binding analysis computer software package (Wan System AB, Trillvägen 13, S-905 92 Umeå, Sweden). The fraction (q) of guanidine product obtained is then given by: [formula] […]

[3] = target: T2, bovine milk xanthine oxidase; assay: Oxidation of xanthine to uric acid by xanthine oxidase in absence and presence of oxygen, spectrophotometric; format: biochemical; set-up: host or cells: bovine milk; details: 50 μM guanoxabenz, 50 μM xanthine; both in the absence of oxygen (nitrogen) and in the presence of 20% oxygen
Method: Capacity of hydroxyguanidines to sustain oxidation of xanthine by xanthine oxidase in the absence and in the presence of oxygen. The capacity of hydroxyguanidines to sustain the oxidation of xanthine to uric acid in the absence and presence of oxygen was assayed by using a spectrophotometric method. In this method bovine milk xanthine oxidase was injected to a Helma® sealable cuvette for anaerobic applications thereby creating 1 ml of a reaction mixture that contained reagents as follows: 50 μM of a hydroxyguanidine, 50 μM xanthine, 0.05 units/ml bovine milk xanthine oxidase, 50 mM Tris and 1.5 mM EDTA; the pH of the reaction mixture being 7.5, and the temperature being 20° C. Anaerobic conditions were assured by pre-gassing all solutions used for 5-10 min, with nitrogen whereas aerobic conditions was assured by exposing the solutions to air. The rate of formation of uric acid was monitored spectrophotometrically by measuring the increase in absorbance at 295 nm (the absorption maximum for uric acid) at timed intervals. In FIG. 5 are shown examplary recordings from these tests. In this test the hydroxyguanidine was guanoxabenz.
Target sequence in this assay (P80457 whole entry): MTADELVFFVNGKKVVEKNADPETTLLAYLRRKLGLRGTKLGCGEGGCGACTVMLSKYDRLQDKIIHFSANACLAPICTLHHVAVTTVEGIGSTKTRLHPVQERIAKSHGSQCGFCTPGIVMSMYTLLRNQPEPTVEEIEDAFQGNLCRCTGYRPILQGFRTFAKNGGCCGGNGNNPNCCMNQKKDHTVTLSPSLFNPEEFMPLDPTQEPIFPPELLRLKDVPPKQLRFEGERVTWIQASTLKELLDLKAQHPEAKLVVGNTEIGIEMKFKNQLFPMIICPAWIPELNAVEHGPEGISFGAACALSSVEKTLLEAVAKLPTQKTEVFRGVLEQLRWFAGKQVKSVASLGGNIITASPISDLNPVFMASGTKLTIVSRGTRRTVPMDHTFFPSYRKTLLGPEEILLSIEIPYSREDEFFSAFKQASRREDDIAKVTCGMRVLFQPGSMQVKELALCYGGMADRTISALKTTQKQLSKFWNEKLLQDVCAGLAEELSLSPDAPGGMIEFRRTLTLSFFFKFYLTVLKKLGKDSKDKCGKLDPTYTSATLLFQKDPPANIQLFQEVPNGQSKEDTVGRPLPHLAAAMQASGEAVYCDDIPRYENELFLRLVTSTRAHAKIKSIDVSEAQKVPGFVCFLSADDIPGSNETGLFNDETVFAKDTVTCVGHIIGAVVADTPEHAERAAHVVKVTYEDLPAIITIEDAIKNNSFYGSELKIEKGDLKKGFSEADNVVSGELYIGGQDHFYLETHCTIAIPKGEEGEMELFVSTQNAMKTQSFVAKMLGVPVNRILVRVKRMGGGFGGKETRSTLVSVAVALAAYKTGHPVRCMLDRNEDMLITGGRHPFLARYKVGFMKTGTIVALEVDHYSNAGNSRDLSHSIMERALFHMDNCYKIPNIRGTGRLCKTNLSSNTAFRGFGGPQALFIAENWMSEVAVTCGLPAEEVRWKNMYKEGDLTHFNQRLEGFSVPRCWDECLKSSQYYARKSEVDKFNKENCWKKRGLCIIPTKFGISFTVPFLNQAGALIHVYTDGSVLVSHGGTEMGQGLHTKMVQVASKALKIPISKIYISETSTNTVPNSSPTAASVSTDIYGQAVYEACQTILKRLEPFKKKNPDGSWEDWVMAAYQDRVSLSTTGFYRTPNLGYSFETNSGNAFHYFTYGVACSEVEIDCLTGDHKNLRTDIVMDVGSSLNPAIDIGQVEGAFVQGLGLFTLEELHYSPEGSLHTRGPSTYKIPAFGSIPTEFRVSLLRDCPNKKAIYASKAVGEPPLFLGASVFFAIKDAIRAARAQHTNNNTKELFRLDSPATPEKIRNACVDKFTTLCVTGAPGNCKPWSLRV

[4] = 70 μM guanoxabenz, 25° C., after 1 minute incubation, HPLC 260 nm
[5] = 70 μM guanoxabenz, after 1 hour

T1 sequence (P22985 whole entry): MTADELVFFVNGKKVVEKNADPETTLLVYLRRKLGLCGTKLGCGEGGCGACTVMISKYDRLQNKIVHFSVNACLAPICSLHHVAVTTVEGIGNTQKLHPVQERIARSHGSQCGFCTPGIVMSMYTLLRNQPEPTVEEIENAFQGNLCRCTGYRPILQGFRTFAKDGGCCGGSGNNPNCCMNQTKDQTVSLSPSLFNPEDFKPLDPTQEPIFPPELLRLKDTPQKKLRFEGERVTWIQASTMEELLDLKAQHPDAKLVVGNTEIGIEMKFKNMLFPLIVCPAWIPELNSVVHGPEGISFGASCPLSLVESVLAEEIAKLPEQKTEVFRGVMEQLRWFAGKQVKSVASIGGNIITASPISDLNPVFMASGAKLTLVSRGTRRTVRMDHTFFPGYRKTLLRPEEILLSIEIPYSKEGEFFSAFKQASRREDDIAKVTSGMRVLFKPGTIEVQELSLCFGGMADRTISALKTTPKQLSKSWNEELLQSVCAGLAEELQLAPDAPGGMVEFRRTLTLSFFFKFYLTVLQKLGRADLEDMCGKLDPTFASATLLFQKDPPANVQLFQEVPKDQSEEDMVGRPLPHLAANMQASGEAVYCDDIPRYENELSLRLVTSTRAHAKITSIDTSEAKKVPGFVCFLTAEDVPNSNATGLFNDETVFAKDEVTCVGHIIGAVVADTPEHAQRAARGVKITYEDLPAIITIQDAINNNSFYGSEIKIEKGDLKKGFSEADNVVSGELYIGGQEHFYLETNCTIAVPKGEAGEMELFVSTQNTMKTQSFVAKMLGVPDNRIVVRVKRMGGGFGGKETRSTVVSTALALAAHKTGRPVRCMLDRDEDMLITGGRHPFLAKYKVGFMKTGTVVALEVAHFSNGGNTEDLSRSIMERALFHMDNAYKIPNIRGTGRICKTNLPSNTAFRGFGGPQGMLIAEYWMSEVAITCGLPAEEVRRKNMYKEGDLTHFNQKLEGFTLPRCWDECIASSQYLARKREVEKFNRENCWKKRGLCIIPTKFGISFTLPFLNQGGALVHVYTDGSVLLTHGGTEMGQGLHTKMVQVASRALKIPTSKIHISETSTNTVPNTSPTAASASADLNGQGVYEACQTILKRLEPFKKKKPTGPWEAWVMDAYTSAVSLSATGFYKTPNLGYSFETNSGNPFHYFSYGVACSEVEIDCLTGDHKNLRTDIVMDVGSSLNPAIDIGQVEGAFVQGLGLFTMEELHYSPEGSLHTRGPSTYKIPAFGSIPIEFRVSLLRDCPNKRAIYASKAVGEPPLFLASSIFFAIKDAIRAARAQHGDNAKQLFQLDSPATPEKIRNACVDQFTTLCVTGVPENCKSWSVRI

- UV-absorption corresponding to the guanabenz peak [1, 4]: 5%
- UV-absorption in the guanoxabenz peak [1, 4]: 95%
- guanabenz peak as part of total absorbance of the chromatograms [1, 5]: about ⅓
- guanoxabenz peak as part of total absorbance of the chromatograms [1, 5]: ⅔
- size of guanabenz and guanoxabenz peaks ([1]; 70 μM guanoxabenz, after 4 hours): about equal size
- peak corresponding to guanabenz, share of UV-absorbing material (260 nm) ([1]; 500 μM guanoxabenz, 1 hr, MgCl2 (2 mM) and DTT (2 mM)): more than 99%
- conversion of guanoxabenz to guanabenz ([2]; in the absence of allopurinol): about 88%
- guanoxabenz converted to guanabenz ([2]; in the presence of allopurinol (20 μM)): none
- concentration of guanabenz in the sample (rat heart cytosol): 6.3 µM
- conversion of guanoxabenz to guanabenz (rat heart cytosol): 9%
- q (fraction of guanidine product) (rat heart cytosol): 0.09
- rate of the formation of uric acid (absorbance at 295 nm) [3]: substantial increase
SMILES: N=C(NO)NN=Cc1c(Cl)cccc1Cl [Guanoxabenz, 2(2,6-dichlorophenyl)methylene-N-hydroxyhydrazine carboxi-imidamide]
